Assays:
PSA promoter = assay: PSA promoter/enhancer CAT reporter assay in transfected LNCaP cells; assay type: cell-based, human; settings: LNCaP cells co-transfected with PSA-CAT reporter and wild type p53 plasmid; TSA 100 nM
Protocol: (§1) FIG. 2: Opposite regulatory effect of p53 on PSA and p21 promoters. Chloramphenicol acetyltransferase (CAT)-reporter constructs were used to estimate p53 influence on PSA and p21 promoter elements. […]
(§2) FIG. 3: Trichostatin A (TSA) treatment eliminates the effect p53 has on PSA promoter activity. […] TSA (100 nM) was added 5 h and CAT activity was measured 40 h post-transfection. […]
(§3) Since it has previously been shown that negative regulation of transcription by p53 may involve p53-mediated recruitment of histone deacetylases (HDAC) (Murphy et al., Genes Dev., i3:2490-2501 1999), the inventors set out to determine whether this would be also true for the PSA promoter. […] At the same time, TSA had no effect on p53-mediated transactivation as determined in a similar experiment employing the p21 promoter-driven CAT reporter construct (FIG. 3). […]

p21 promoter = assay: p21/Waf1 p53-responsive promoter CAT reporter assay in transfected LNCaP cells; assay type: cell-based, human; settings: LNCaP cells co-transfected with p21-CAT reporter and wild type p53 plasmid; TSA 100 nM
Protocol: as §1, §2, §3

CC(/C=C/C(=O)NO)=C\[C@@H](C)C(=O)c1ccc(N(C)C)cc1 [TSA, Trichostatin A]
p53-mediated repression of PSA promoter driven transcriptional activity (CAT activity) (PSA promoter): completely abrogated
p53-mediated transactivation of p21 promoter-driven CAT reporter (p21 promoter): no effect

Source: patent US20040241653A1, “Methods for identifying marker genes for cancer” (priority 2001, published 2004)
